# Experimental data taken from US20210052705A1, “METHOD OF DRUG […] FOR PTH, PTHrP AND RELATED PEPTIDES” (Radius Health, Inc., priority 2011, published 2021).
# Read-outs that look alike come from different tables or passages of the source.
# Key:
# [1] = set-up: AUCR: unit not given beside the values; details: in vivo
# clinical = details: female, human, in vivo; for AUC(0-inf): AUC0-inf; for Tmax: Tmax (Median); for half-life: t1/2
# Description: This study was conducted at 1 study site and consisted of 3 study periods. […] Application sites were to be either periumbilical or upper thigh regions each with 2 wear times of 10 seconds and 15 minutes. […] Application sites were to be either periumbilical with 10 second and 15 minute wear times or upper thigh regions with a 15 minute wear time. […] Application times were to included 30 seconds, 1, 5, 15, 60 minutes, and 24 hours. New subjects were to be enrolled in each study period.
# in vivo [2] = details: rat, sc, 20 ug/kg
# Description: Certain drug coated microarrays were tested in vivo in a preclinical model using Sprague Dawley rats. […] Male Sprague Dawley rats with jugular vein catheters were purchased from Charles River Laboratories. Once received, they were acclimated for at least 24 hours prior to dosing.
# Typically, one hour prior to dosing microneedle arrays were removed from refrigeration (approximately 4° C.) and allowed to equilibrate to room temperature.
# The standard procedure for skin preparation and microneedle array application is as follows.
# One day prior to dosing, an area just above the hind legs on the dorsal surface of the rat was shaved using electric clippers. Nair® hair removal lotion (Church & Dwight Co.) was then applied to the area for 5 to 8 minutes to remove remaining fur stubble. The Nair® lotion was then thoroughly removed using a damp cloth. The next day a microneedle array was applied using a spring-loaded applicator. The microneedle array was left in contact with skin for five minutes, before being removed. During array application and contact time the rats were manually restrained.
# Blood was collected at three time points from each animal out of a possible total of five time destinations (5 minutes, 15 minutes, 30 minutes, 45 minutes, 90 minutes) from each rat on a staggered schedule so that all time points would be represented with extra sampling at 15 minutes without overdrawing from any animal. Approximately 1 mL of blood was collected via the catheter from the jugular vein using a syringe and needle from rats for their first two blood draws. For the terminal blood collection, animals were euthanized via CO2 chamber and approximately 1 mL of blood was collected via cardiac puncture. The blood was immediately transferred to a serum separator tube that contained 25 μL of a 2.5 mg/ml aprotinin (Sigma) solution.
# Blood was collected from each rat 5, 10, 15, 30 and 45 minutes post dose. Approximately 600 μL of blood was collected via the catheter from the jugular vein using a syringe and needle from rats for their first four blood draws. For the terminal blood collection, animals were euthanized via CO2 chamber and approximately 600 μL of blood was collected via cardiac puncture. The blood was immediately transferred to a serum separator tube that contained 12 μL of a 2.5 mg/ml aprotinin (Sigma) solution.
# Blood was collected three or four times from each rat at the time points depicted in the tables below. Approximately 1 mL of blood was collected via the catheter from the jugular vein using a syringe and needle from rats for any non-terminal time points. For the terminal blood collection, animals were euthanized via CO2 chamber and approximately 1 mL of blood was collected via cardiac puncture. The blood was immediately transferred to a serum separator tube that contained 20 μL of a 2.5 mg/ml aprotinin (Sigma) solution.
# Blood was collected from each rat 5, 15, 30, 45, 90 and 120 minutes post dose. Approximately 500 μL of blood was collected via the catheter from the jugular vein using a syringe and needle from rats for their first five blood draws. For the terminal blood collection, animals were euthanized via CO2 chamber and approximately 500 μL of blood was collected via cardiac puncture.
# in vivo [3] = details: female, Sprague Dawley, rat, sc
# Description: On day 14 of dosing approximately 3 mL of blood was collected 15 minutes post dose. The blood was immediately transferred to a serum separator tube that contained 60 μL of a 2.5 mg/mL aprotinin (Sigma) solution. The blood was kept at room temperature for approximately 45 minutes to allow it to clot. Once clotted, the blood was centrifuged at 2500 rpm for 10 minutes. Serum was stored at −80° C.
compound,measurement,setting,value
CC[C@H](C)[C@H](NC(=O)[C@H](CO)NC(=O)[C@H](CCCCN)NC(=O)CNC(=O)[C@H](CCCCN)NC(=O)[C@H](CC(=O)O)NC(=O)[C@H](Cc1cnc[nH]1)NC(=O)[C@H](CC(C)C)NC(=O)[C@H](CC(C)C)NC(=O)[C@H](CCC(N)=O)NC(=O)[C@H](Cc1cnc[nH]1)NC(=O)[C@H](CCC(=O)O)NC(=O)[C@H](CO)NC(=O)[C@@H](NC(=O)[C@H](C)N)C(C)C)C(=O)N[C@@H](CCC(N)=O)C(=O)N[C@@H](CC(=O)O)C(=O)N[C@@H](CC(C)C)C(=O)N[C@@H](CCCNC(=N)N)C(=O)N[C@@H](CCCNC(=N)N)C(=O)N[C@@H](CCCNC(=N)N)C(=O)N[C@@H](CCC(=O)O)C(=O)N[C@@H](CC(C)C)C(=O)N[C@@H](CC(C)C)C(=O)N[C@@H](CCC(=O)O)C(=O)N[C@@H](CCCCN)C(=O)N[C@@H](CC(C)C)C(=O)N[C@@H](CC(C)C)C(=O)NC(C)(C)C(=O)N[C@@H](CCCCN)C(=O)N[C@@H](CC(C)C)C(=O)N[C@@H](Cc1cnc[nH]1)C(=O)N[C@H](C(=O)N[C@@H](C)C(N)=O)[C@@H](C)O,AUC0-inf/dose,[1]; 100 ug,1.77 ± 0.869 pg·h/mL/µg
same,AUC0-tau/dose,[1]; 100 ug,1.77 ± 0.868 pg·h/mL/µg
same,AUCR,[1]; 100 ug,0.898 ± 0.0169
same,CL/F,[1]; 100 ug,666.2 ± 284.4 L/h
same,AUC0-inf/dose,[1]; sc,7.92 ± 2.83 pg·h/mL/µg
same,AUC0-tau/dose,[1]; sc,7.91 ± 2.83 pg·h/mL/µg
same,"Mean Dose Normalized AUC0-inf, SC Dose",[1]; sc,7.92
same,AUC(0-inf),clinical; 100 ug,0.177 ± 0.0869 ng·h/mL
same,AUC(0-t),"clinical; 100 ug, AUC0-t",0.154 ± 0.0693 ng·h/mL
same,AUC,"clinical; 100 ug, AUC0-tau",0.177 ± 0.0868 ng·h/mL
same,Cmax,"clinical; 100 ug, Cmax",0.317 ± 0.0806 ng/mL
same,Tmax,clinical; 100 ug,12.1 min
same,Vd/F,clinical; 100 ug,366 ± 128 L
same,half-life,clinical; 100 ug,24.1 ± 7.56 min
same,AUC(0-inf),clinical; 150 ug,0.269 ± 0.265 ng·h/mL
same,Tmax,clinical; 150 ug,9.84 min
same,half-life,clinical; 150 ug,34.1 ± 28.3 min
same,Tmax,clinical,7.8 min
same,Vd/F,clinical,491 ± 208 L
same,CL/F,clinical; sc,2340 mL/min
same,Tmax,clinical; sc,25.3 min
same,Vd/F,clinical; sc,197 ± 86.2 L
same,half-life,clinical; sc,58.2 ± 11.1 min
same,half-life,clinical,28 ± 25 min
same,CL/F,"clinical; topical or ocular, 100 ug",6710 mL/min
CC[C@H](C)[C@H](NC(=O)[C@H](CO)NC(=O)[C@H](CCCCN)NC(=O)CNC(=O)[C@H](CCCCN)NC(=O)[C@H](CC(=O)O)NC(=O)[C@H](Cc1cnc[nH]1)NC(=O)[C@H](CC(C)C)NC(=O)[C@H](CC(C)C)NC(=O)[C@H](CCC(N)=O)NC(=O)[C@H](Cc1cnc[nH]1)NC(=O)[C@H](CCC(=O)O)NC(=O)[C@H](CO)NC(=O)[C@@H](NC(=O)[C@H](C)N)C(C)C)C(=O)N[C@@H](CCC(N)=O)C(=O)N[C@@H](CC(=O)O)C(=O)N[C@@H](CC(C)C)C(=O)N[C@@H](CCCNC(=N)N)C(=O)N[C@@H](CCCNC(=N)N)C(=O)N[C@@H](CCCNC(=N)N)C(=O)N[C@@H](CCC(=O)O)C(=O)N[C@@H](CC(C)C)C(=O)N[C@@H](CC(C)C)C(=O)N[C@@H](CCC(=O)O)C(=O)N[C@@H](CCCCN)C(=O)N[C@@H](CC(C)C)C(=O)N[C@@H](CC(C)C)C(=O)NC(C)(C)C(=O)N[C@@H](CCCCN)C(=O)N[C@@H](CC(C)C)C(=O)N[C@@H](Cc1cnc[nH]1)C(=O)N[C@H](C(=O)N[C@@H](C)C(N)=O)[C@@H](C)O [reference SC],Cmax,in vivo [2]; Cmax,8.9 ng/mL
same,Tmax,in vivo [2]; Tmax,10 min
same,half-life,in vivo [2]; t1/2,31 min
same,level at 0.25 h,in vivo [3],0.0108 ± 0.0036 ng/mL
